Test results: PubChem BioAssay (NCI)
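Five concentrations, 48 hours, 96-well plates. TGI marks complete inhibition of growth.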

Assays:
Assay in all cases: inhibition of tumour cell growth, NCI panel, 48 h
NCI-H460 lung = system: NCI-H460 lung
U251 CNS = system: U251 CNS
SK-MEL-5 melanoma = system: SK-MEL-5 melanoma
UACC-257 melanoma = system: UACC-257 melanoma
IGROV1 ovarian = system: IGROV1 ovarian
MALME-3M melanoma = system: MALME-3M melanoma
CCRF-CEM leukemia = system: CCRF-CEM leukemia
A549 NSCLC = system: A549 NSCLC
DMS 114 small cell lung = system: DMS 114 small cell lung
SNB-19 CNS = system: SNB-19 CNS
HOP-18 NSCLC = system: HOP-18 NSCLC
HOP-62 NSCLC = system: HOP-62 NSCLC
HCT-15 colon = system: HCT-15 colon
SNB-78 CNS = system: SNB-78 CNS
SK-OV-3 ovarian = system: SK-OV-3 ovarian
HCT-116 colon = system: HCT-116 colon
OVCAR-3 ovarian = system: OVCAR-3 ovarian
LOX IMVI melanoma = system: LOX IMVI melanoma
SF-539 CNS = system: SF-539 CNS
EKVX NSCLC = system: EKVX NSCLC

Measured: TGI

CCOC(=O)NC(=O)c1cn(CCSCCOC(=O)NCCCCCCNC(=O)OCCSCCn2cc(C(=O)NC(=O)OCC)c(=O)[nH]c2=O)c(=O)[nH]c1=O
> 100 µM: NCI-H460 lung | U251 CNS | SK-MEL-5 melanoma | UACC-257 melanoma | IGROV1 ovarian | MALME-3M melanoma | CCRF-CEM leukemia | A549 NSCLC | DMS 114 small cell lung | SNB-19 CNS | HOP-18 NSCLC | HOP-62 NSCLC | HCT-15 colon | SNB-78 CNS | SK-OV-3 ovarian | HCT-116 colon | OVCAR-3 ovarian | LOX IMVI melanoma | SF-539 CNS | EKVX NSCLC

Cc1cc(N=Nc2ccc(N=Nc3c(O)c(S(=O)(=O)O)cc4cc(S(=O)(=O)O)ccc34)cc2C)ccc1N=Nc1ccc2cc(S(=O)(=O)O)cc(S(=O)(=O)O)c2c1
> 100 µM: NCI-H460 lung | U251 CNS | SK-MEL-5 melanoma | UACC-257 melanoma | IGROV1 ovarian | MALME-3M melanoma | CCRF-CEM leukemia | A549 NSCLC | DMS 114 small cell lung | SNB-19 CNS | HOP-18 NSCLC | HOP-62 NSCLC | HCT-15 colon | SNB-78 CNS | SK-OV-3 ovarian | HCT-116 colon | OVCAR-3 ovarian | LOX IMVI melanoma | SF-539 CNS | EKVX NSCLC
